Results from patent US9981968B2, “Substituted pyrrolo[2,3-d]pyrimidines for the treatment of cancer and proliferative disorders” (Northwestern University, priority 2013, dated 2018).

What was measured:
Assay type in all cases: cell-based
HCT-116 = assay: SRB growth assay, HCT-116; conditions: Homo sapiens, HCT-116 (Colon), 48 hours, read-out: Percent viability
Text: (§1) Tested cell lines included, Leukemia: CCRF-CEM, HL-60(TB), MOLT-4, RPMI-8226 and SR; Non-Small Cell Lung: A549/ATCC, EKVX, HOP-62, HOP-92, NCI-H226, NCI-H23, NCI-H322M, NCI-H460 and NCI-H522; Colon: COLO 205, HCC-2998, HCT-116, HCT-15. HT29, KM12 and SW-620; CNS: SF-268, SF-295, SF-539, SNB-19, SNB-75 and U251; Melanoma: LOX IMVI, MALME-3M, M14, MDA-MB-435, SK-MEL-2, SK-MEL-28, SK-MEL-5, UACC-257 and UACC-62; Ovarian: IGR-OV1, OVCAR-3, OVCAR-4, OVCAR-5, OVCAR-8. NCI/ADR-RES and SK-OV-3; Renal: 786-0, A498, ACHN, CAKI-1, RXF 393, SN12C, TK-10 and UO-31; Prostate: DU-145 and PC-3; and Breast: MCF7, MDA-MB-231/ATCC, MDA-MB-468, HS 578T, BT-549 and T-47D.
(§2) The cells were cultured in RPMI1640 media supplemented with 10% Fetal Bovine Serum (FBS), 2 mM glutamine and with 5% CO2 and 37° C. For experiment, 5% of FBS and 50 ug/mL of gentamycin were used. Test articles were 10 μM of NUCL 381-3 or 10 μM NUCL 383-3. The positive control was 10 μM of doxorubicin.
(§3) Cells were plated in 96 well plates. The cells were plated in triplicate. Cells were plated at the densities based on NCI recommendation. Time zero cells (Tz) were fixed the following day with 50% or 80% ice cold Trichloracetic acid (TCA) and washed 5× with water. At 48 hours post addition of treatments, all remaining plates were fixed in 80% ice cold Trichloracetic acid (TCA) and washed 5× with water. After drying, one hundred microliters of 0.4% Sulphorhodamine B (SRB) in 1% acetic acid was added to each plate including the Tzero plate and incubated for 10 minutes at room temperature. After 5 additional washes with 1% acetic acid, plates were allowed to dry. One hundred microliters of Trizma base was added to each well and plates were read at 515 nm.
(§4) Percent of growth was calculated by the following formulas: [Ti/C]×100, where: Tz=absorbance readings for wells at time zero without treatment; C=absorbance readings of untreated cells (without treatment); and Ti=absorbance reading of wells with treatment.

OVCAR-3 = assay: SRB growth assay, OVCAR-3; conditions: Homo sapiens, OVCAR-3 (Ovarian), 48 hours, read-out: Percent viability
Text: as §1, §2, §3, §4

OVCAR-8 = assay: SRB growth assay, OVCAR-8; conditions: Homo sapiens, OVCAR-8 (Ovarian), 48 hours, read-out: Percent viability
Text: as §1, §2, §3, §4

A549 = assay: SRB growth assay, A549; conditions: Homo sapiens, A549 (Non-Small Cell Lung), 48 hours, read-out: Percent viability
Text: as §1, §2, §3, §4

SF-268 = assay: SRB growth assay, SF-268; conditions: Homo sapiens, SF-268 (CNS), 48 hours, read-out: Percent viability
Text: as §1, §2, §3, §4

EKVX = assay: SRB growth assay, EKVX; conditions: Homo sapiens, EKVX (Non-Small Cell Lung), 48 hours, read-out: Percent viability
Text: as §1, §2, §3, §4

IGR-OV1 = assay: SRB growth assay, IGR-OV1; conditions: Homo sapiens, IGROV-1, IGR-OV1 (Ovarian), 48 hours, read-out: Percent viability
Text: as §1, §2, §3, §4

KM12 = assay: SRB growth assay, KM12; conditions: Homo sapiens, KM12 (Colon), 48 hours, read-out: Percent viability
Text: as §1, §2, §3, §4

A498 = assay: SRB growth assay, A498; conditions: Homo sapiens, A498 (Renal), 48 hours, read-out: Percent viability
Text: as §1, §2, §3, §4

NCI/ADR-RES = assay: SRB growth assay, NCI/ADR-RES; conditions: Homo sapiens, NCI/ADR-RES (Ovarian), 48 hours, read-out: Percent viability
Text: as §1, §2, §3, §4

MDA-MB-435 = assay: SRB growth assay, MDA-MB-435; conditions: Homo sapiens, MDA-MB-435 (Melanoma), 48 hours, read-out: Percent viability
Text: as §1, §2, §3, §4

SR = assay: SRB growth assay, SR; conditions: Homo sapiens, SR (Leukemia), 48 hours, read-out: Percent viability
Text: as §1, §2, §3, §4

CCRF-CEM = assay: SRB growth assay, CCRF-CEM; conditions: Homo sapiens, CCRF-CEM (Leukemia), 48 hours, read-out: Percent viability
Text: as §1, §2, §3, §4

MOLT-4 = assay: SRB growth assay, MOLT-4; conditions: Homo sapiens, MOLT-4 (Leukemia), 48 hours, read-out: Percent viability
Text: as §1, §2, §3, §4

UACC-62 = assay: SRB growth assay, UACC-62; conditions: Homo sapiens, UACC-62 (Melanoma), 48 hours, read-out: Percent viability
Text: as §1, §2, §3, §4

SK-MEL-2 = assay: SRB growth assay, SK-MEL-2; conditions: Homo sapiens, SK-MEL-2 (Melanoma), 48 hours, read-out: Percent viability
Text: as §1, §2, §3, §4

COLO 205 = assay: SRB growth assay, COLO 205; conditions: Homo sapiens, COLO 205 (Colon), 48 hours, read-out: Percent viability
Text: as §1, §2, §3, §4

SK-OV-3 = assay: SRB growth assay, SK-OV-3; conditions: Homo sapiens, SK-OV-3 (Ovarian), 48 hours, read-out: Percent viability
Text: as §1, §2, §3, §4

ACHN = assay: SRB growth assay, ACHN; conditions: Homo sapiens, ACHN (Renal), 48 hours, read-out: Percent viability
Text: as §1, §2, §3, §4

OVCAR-5 = assay: SRB growth assay, OVCAR-5; conditions: Homo sapiens, OVCAR-5 (Ovarian), 48 hours, read-out: Percent viability
Text: as §1, §2, §3, §4

BT-549 = assay: SRB growth assay, BT-549; conditions: Homo sapiens, BT-549 (Breast), 48 hours, read-out: Percent viability
Text: as §1, §2, §3, §4

LOX IMVI = assay: SRB growth assay, LOX IMVI; conditions: Homo sapiens, LOX IMVI (Melanoma), 48 hours, read-out: Percent viability
Text: as §1, §2, §3, §4

HOP-62 = assay: SRB growth assay, HOP-62; conditions: Homo sapiens, HOP-62 (Non-Small Cell Lung), 48 hours, read-out: Percent viability
Text: as §1, §2, §3, §4

Compound | viability at 10 µM (HCT-116) | viability at 10 µM (OVCAR-3) | viability at 10 µM (OVCAR-8) | viability at 10 µM (A549) | viability at 10 µM (SF-268) | viability at 10 µM (EKVX) | viability at 10 µM (IGR-OV1) | viability at 10 µM (KM12) | viability at 10 µM (A498) | viability at 10 µM (NCI/ADR-RES) | viability at 10 µM (MDA-MB-435) | viability at 10 µM (SR) | viability at 10 µM (CCRF-CEM) | viability at 10 µM (MOLT-4) | viability at 10 µM (UACC-62) | viability at 10 µM (SK-MEL-2) | viability at 10 µM (COLO 205) | viability at 10 µM (SK-OV-3) | viability at 10 µM (ACHN) | viability at 10 µM (OVCAR-5) | further results
FC(F)(F)c1cn(CC2CCNCC2)c2ncnc(Cl)c12 [NUCC-0000381] | 20.1% | 48.7% | 31.7% | 28.2% | 3.37% | 57.5% | 36.9% | 31% | 93.8% | 93.3% | 65.5% | 16.7% | 52.8% | 75.5% | 46.3% | 106% | 79.5% | 56.5% | 23.3% | 76.8% | viability at 10 µM (BT-549): 103%; viability at 10 µM (LOX IMVI): 26%; viability at 10 µM (HOP-62): 15.7%
CS(=O)(=O)N1CCC(Cn2cc(C(F)(F)F)c3c(Cl)ncnc32)CC1 [NUCC-0000383] | 15% | 95.5% | 73.9% | 100% | 1.77% | 84.6% | 77.5% | 99.5% | 101% | 99% | 46.6% | 37% | 54% | 17.9% | 8.26% | 14.7% | 93% | 74.2% | 77.8% | 104% | viability at 10 µM (BT-549): 79.2%; viability at 10 µM (LOX IMVI): 35.8%; viability at 10 µM (HOP-62): 88.5%
COc1cccc2c1C(=O)c1c(O)c3c(c(O)c1C2=O)C[C@@](O)(C(=O)CO)C[C@@H]3O[C@H]1C[C@H](N)[C@H](O)[C@H](C)O1 [Doxorubicin, reference compound] | 14.9% | 16.8% | 15% | 86.8% | 6.91% | 35.5% | 8.63% | 71.8% | 62.9% | 78.8% | 17.4% | 11.1% | 43.6% | 30.4% | 4.85% | 11.6% | 2.33% | 47.8% | 40.2% | 57.1% | viability at 10 µM (BT-549): 62.5%; viability at 10 µM (LOX IMVI): 24.4%; viability at 10 µM (HOP-62): 19.7%
